Measured values from PMC11267380, “USP25 Elevates SHLD2‐Mediated DNA Double‐Strand Break Repair and Regulates Chemoresponse in Cancer” (Advanced Science, 2024).

Test system: USP25 phosphorylation at SQ/TQ motif in HEK293T cells
Test: USP25 phosphorylation (p-SQ/TQ) after IR, IP and immunoblot
Assay type: cell-based
Details: IR (10 Gy), Ku55933 (25 µM) for 2 h pretreatment or phosphatase treatment of immunoprecipitated USP25
Experimental: Figure 4 Regulation of the DDR signaling by USP25. a) HEK293T cells were left untreated or treated with IR (10 Gy) or 5‐Fu (20 uM). USP25 was immunoprecipitated and immunoblotted with phospho‐SQ/TQ (p‐SQ/TQ). b) HEK293T cells were pretreated with Ku55933 (25 µM) for 2 h followed by treatment with IR(10 Gy). After 1 h, USP25 was immunoprecipitated, left untreated, or treated with phosphatase and immunoblotted with p‐SQ/TQ. c) HEK293T cells transfected with USP25^WT and indicated constructs were left treated with IR(10 Gy). USP25 was immunoprecipitated and immunoblotted with p‐SQ/TQ. d) USP25 knockdowm U2OS cells rescued with USP25WT or USP25T523A were treated with IR (2 Gy), and co‐localization USP25 with γH2AX was detected by immunofluorescence. n>80 in each group. e) HEK293T cells were left untreated or treated with 5‐Fu (20 uM). […] The interaction USP25 and MDC1 deletions was detected. g) HEK293T cells transfected with USP25^WT or USP25^T523A were treated with IR, and cell lysates were incubated with GST or GST‐MDC1‐BRCT in vitro. The interaction USP25 and MDC1‐BRCT was detected. h) Non‐phosphorylated or phosphorylated Thr523 peptide was conjugated to beads and incubated with purified GST‐MDC1‐BRCT domain in buffer. […]

For `O=c1cc(-c2cccc3c2Sc2ccccc2S3)oc(N2CCOCC2)c1` [Ku55933], the USP25 phosphorylation was “abolished”.
